The values that follow are results of earlier work, collected in patent US20220152157A1 (priority 2020, published 2022).

Read-outs that look alike come from different tables or passages of the source. A value given as a limit tells only on which side of the number the result lay.

The test system of one series is influenza A virus. The settings on record: for membrane convergence of virus and host cell: influenza A, model MDCK cells.
In the next series the test system is pulmonary inflammation. The following applies: in vivo.
For series [1], the system named is Toll-like receptors (TLR).
Series [2] deals with virus. The settings on record: ferrets.
Series [3] has as its system virus. The settings on record: mice.
For series [4], the system named is human respiratory viruses. The settings on record: combined with ribavirin, in vitro.
The subject of series [5] is human respiratory viruses. The settings on record: combined with ribavirin, experimental animal models.

Turning to “1-palmitoyl-2-oleoyl-sn-glycero-3-phosphoglycerol [POPG]”, in the series with influenza A virus, the “binding affinity for the influenza A virus” value is given as “high binding affinity”; the “binding of the influenza A virus to the surrogate host cells” value is given as “prevent the binding”; the “membrane convergence of virus and host cell” value was “inhibited”. Moreover, in the series with pulmonary inflammation, the “lowering of total inflammatory cell infiltrates (neutrophils and lymphocytes)” value is recorded as above 90%; the virus-induced proinflammatory cytokines result is listed as “reduced”. Also, in series [1], the “deactivation of Toll-like receptors (TLR)” value is “deactivators of Toll-like receptors”. Also, the viricidal effect entry in the series with virus [2] is “viricidal”. Besides, the viricidal effect entry in the series with virus [3] is “viricidal”.

As for `CCCCC/C=C\C/C=C\C/C=C\C/C=C\CCCC(=O)OC(COC(=O)CCCCCCCCCCCCCCCCC)COP(=O)(O)OC1C(O)C(O)C(O)C(O)C1O` (centres unmarked) [PI, phosphatidyl inositol], in the series with influenza A virus, the “binding affinity for the influenza A virus” value is reported as “high binding affinity”; the “binding of the influenza A virus to the surrogate host cells” value is listed as “prevent the binding”; the “membrane convergence of virus and host cell” value is “inhibited”. Besides, in the series on pulmonary inflammation, the virus-induced proinflammatory cytokines result is listed as “reduced”. The “deactivation of Toll-like receptors (TLR)” value in series [1] is “deactivators of Toll-like receptors”.

As to `CC(N)C12CC3CC(CC(C3)C1)C2` (centres unmarked) [Rimantadine], the “antiviral effects of the combination” value in series [4] and in series [5] was “increased antiviral effects” each time.

For `NC12CC3CC(CC(C3)C1)C2` [amantadine], the “antiviral effects of the combination” value in series [4] and in series [5] was “increased antiviral effects” throughout.
